HELM strings list units from the 5' end as sugar, base in round brackets, then linkage (d deoxyribose, r ribose, m 2'-O-methyl, p phosphodiester). Strings are as the collection lists them, not checked against the first reports. ss, as = sense and antisense strand; [lna] = locked nucleic acid (LNA); [una] = unlocked nucleic acid; [hna] = hexitol nucleic acid; [s4r] = 4'-thioribose; [fl2r] = 2'-fluoro
Further: test system not given here.

The conditions of the data set: siRNA.
“RNA1{r(A)p.r(G)p.m(A)p.r(G)p.r(A)p.r(G)p.r(G)p.m(U)p.r(G)p.r(G)p.r(A)p.r(G)p.r(G)p.m(U)p.r(A)p.r(U)p.r(C)p.r(U)p.r(C)p.r(T)p.r(T)}|RNA2{r(G)p.r(A)p.r(G)p.r(A)p.m(U)p.r(A)p.r(C)p.r(C)p.r(U)p.r(C)p.m(C)p.r(A)p.r(C)p.r(C)p.r(U)p.m(C)p.r(U)p.r(C)p.r(U)p.r(T)p.r(T)}$$$RNA1{StrandType:ss}|RNA2{StrandType:as}$”: the target mRNA knockdown amounted to 87%. The result for “RNA1{[s4r](C)p.[s4r](G)p.r(U)p.r(A)p.r(C)p.r(G)p.r(C)p.r(G)p.r(G)p.r(A)p.r(A)p.r(U)p.r(A)p.r(C)p.r(U)p.r(U)p.r(C)p.[s4r](G)p.[s4r](A)p.r(T)p.r(T)}|RNA2{r(U)p.r(C)p.r(G)p.r(A)p.r(A)p.r(G)p.r(U)p.r(A)p.r(U)p.r(U)p.r(C)p.r(C)p.r(G)p.r(C)p.r(G)p.r(U)p.r(A)p.r(C)p.r(G)p.r(T)p.r(T)}$$$RNA1{StrandType:ss}|RNA2{StrandType:as}$” reads 95.3%; that for “RNA1{m(G)p.m(A)p.m(G)p.m(G)p.m(A)p.m(A)p.m(G)p.m(A)p.r(U)p.m(G)p.m(A)p.m(G)p.r(U)p.r(U)p.m(G)p.r(U)p.m(A)p.r(C)p.r(C)p.r(T)p.r(T)}|RNA2{r(G)p.r(G)p.r(U)p.r(A)p.r(C)p.r(A)p.r(A)p.r(C)p.r(U)p.r(C)p.r(A)p.r(U)p.r(C)p.r(U)p.r(U)p.r(C)p.r(C)p.r(U)p.r(C)p.r(T)p.r(T)}$$$RNA1{StrandType:ss}|RNA2{StrandType:as}$”, 70%. The figure for “RNA1{r(A)p.r(A)p.m(C)p.m(C)p.m(C)p.r(A)p.r(A)p.r(A)p.r(G)p.r(G)p.r(G)p.r(G)p.r(A)p.r(G)p.r(U)p.r(U)p.r(G)p.m(C)p.r(U)p.r(T)p.r(T)}|RNA2{m(A)p.r(G)p.m(C)p.r(A)p.m(A)p.r(C)p.m(U)p.r(C)p.m(C)p.r(C)p.m(C)p.r(U)p.m(U)p.r(U)p.m(G)p.r(G)p.m(G)p.r(U)p.m(U)p.r(T)p.r(T)}$$$RNA1{StrandType:ss}|RNA2{StrandType:as}$” is 37%; for “RNA1{r(G)p.r(G)p.r(A)p.r(C)p.m(U)p.r(A)p.r(C)p.m(U)p.r(A)p.r(A)p.r(C)p.r(C)p.r(U)p.r(C)p.m(C)p.r(A)p.r(G)p.r(U)p.r(U)p.r(T)p.r(T)}|RNA2{r(A)p.r(A)p.r(C)p.m(U)p.r(G)p.r(G)p.r(A)p.r(G)p.r(G)p.r(U)p.m(U)p.r(A)p.r(G)p.m(U)p.r(A)p.r(G)p.r(U)p.r(C)p.r(C)p.r(T)p.r(T)}$$$RNA1{StrandType:ss}|RNA2{StrandType:as}$” it is 69%. The figure for “RNA1{r(U)p.r(A)p.r(C)p.r(C)p.r(G)p.r(A)p.r(G)p.r(A)p.r(A)p.r(U)p.r(G)p.m(A)p.r(G)p.m(C)p.r(C)p.m(U)p.r(G)p.m(A)p.r(U)p.r(T)p.r(T)}|RNA2{m(A)p.r(U)p.m(C)p.r(A)p.m(G)p.r(G)p.m(C)p.r(U)p.m(C)p.r(A)p.m(U)p.r(U)p.m(C)p.r(U)p.m(C)p.r(G)p.m(G)p.r(U)p.m(A)p.r(T)p.r(T)}$$$RNA1{StrandType:ss}|RNA2{StrandType:as}$” is 23%; for “RNA1{r(C)p.r(U)p.r(U)p.r(A)p.r(C)p.r(G)p.r(C)p.r(U)p.r(G)p.r(A)p.r(G)p.r(U)p.r(A)p.r(C)p.r(U)p.r(U)p.r(C)p.r(G)p.r(A)p.r(T)p.r(T)}|RNA2{r(U)p.r(C)p.r(G)p.r(A)p.r(A)p.r(G)p.r(U)p.r(A)p.r(C)p.r(U)p.r(C)p.r(A)p.r(G)p.[lna](C)p.r(G)p.r(U)p.r(A)p.r(A)p.r(G)p.r(T)p.r(T)}$$$RNA1{StrandType:ss}|RNA2{StrandType:as}$” it is 43%; for “RNA1{r(C)p.r(U)p.r(U)p.r(A)p.r(C)p.r(G)p.r(C)p.r(U)p.r(G)p.r(A)p.r(G)p.r(U)p.r(A)p.r(C)p.r(U)p.r(U)p.r(C)p.r(G)p.r(A)p.d(T)p.d(T)}|RNA2{r(U)p.r(C)p.r(G)p.r(A)p.r(A)p.r(G)p.r(U)p.r(A)p.r(C)p.r(U)p.r(C)p.r(A)p.r(G)p.r(C)p.r(G)p.r(U)p.r(A)p.r(A)p.r(G)p.[lna](T)p.[lna](T)}$$$RNA1{StrandType:ss}|RNA2{StrandType:as}$” it is 92%.

In turn, “RNA1{r(G)p.r(C)p.r(U)p.r(U)p.m(U)p.r(A)p.r(A)p.r(G)p.r(G)p.r(A)p.r(A)p.r(C)p.m(U)p.r(G)p.r(G)p.r(A)p.r(A)p.r(G)p.r(G)p.r(T)p.r(T)}|RNA2{r(C)p.r(C)p.r(U)p.r(U)p.r(C)p.m(C)p.r(A)p.r(G)p.r(U)p.r(U)p.r(C)p.r(C)p.r(U)p.m(U)p.r(A)p.r(A)p.r(A)p.r(G)p.r(C)p.r(T)p.r(T)}$$$RNA1{StrandType:ss}|RNA2{StrandType:as}$” came in with a target mRNA knockdown of 37%. Substance “RNA1{[fl2r](C)p.r(U)p.[fl2r](C)p.r(U)p.[fl2r](C)p.r(C)p.[fl2r](U)p.r(A)p.[fl2r](C)p.r(C)p.[fl2r](U)p.r(U)p.[fl2r](C)p.r(U)p.[fl2r](C)p.r(C)p.[fl2r](U)p.r(C)p.[fl2r](U)p.r(T)p.r(T)}|RNA2{r(A)p.r(G)p.r(A)p.r(G)p.r(G)p.r(A)p.r(G)p.r(A)p.r(A)p.r(G)p.r(G)p.r(U)p.r(A)p.r(G)p.r(G)p.r(A)p.r(G)p.r(A)p.r(G)p.r(T)p.r(T)}$$$RNA1{StrandType:ss}|RNA2{StrandType:as}$” showed a target mRNA knockdown of 69%. Take “RNA1{r(G)p.r(A)p.r(C)p.r(G)p.[hna](U)p.r(A)p.r(A)p.[hna](A)p.r(C)p.r(G)p.[hna](G)p.r(C)p.r(C)p.[hna](A)p.r(C)p.r(A)p.r(A)p.r(G)p.[hna](U)p.[hna](U)p.d(T)}|RNA2{r(A)p.r(C)p.[hna](U)p.r(U)p.r(G)p.r(U)p.r(G)p.r(G)p.r(C)p.r(C)p.r(G)p.r(U)p.r(U)p.r(U)p.r(A)p.r(C)p.r(G)p.[hna](U)p.[hna](C)p.[hna](G)p.d(T)}$$$RNA1{StrandType:ss}|RNA2{StrandType:as}$”: the target mRNA knockdown was 51.4%. The figure for “RNA1{[hna](G)p.[hna](A)p.[hna](C)p.r(G)p.r(U)p.r(A)p.r(A)p.r(A)p.r(C)p.r(G)p.r(G)p.r(C)p.r(C)p.r(A)p.r(C)p.r(A)p.r(A)p.[hna](G)p.[hna](U)p.[hna](U)p.d(T)}|RNA2{r(A)p.r(C)p.r(U)p.r(U)p.r(G)p.r(U)p.r(G)p.r(G)p.r(C)p.r(C)p.r(G)p.r(U)p.r(U)p.r(U)p.r(A)p.r(C)p.r(G)p.[hna](U)p.[hna](C)p.[hna](G)p.d(T)}$$$RNA1{StrandType:ss}|RNA2{StrandType:as}$” is 84.6%; for “RNA1{r(U)p.r(U)p.r(U)p.[fl2r](C)p.[fl2r](C)p.[fl2r](C)p.[fl2r](C)p.[fl2r](C)p.r(A)p.r(G)p.r(G)p.r(U)p.r(A)p.r(A)p.[fl2r](C)p.r(G)p.r(A)p.r(U)p.r(U)p.r(T)p.r(T)}|RNA2{r(A)p.r(A)p.r(U)p.[fl2r](C)p.r(G)p.r(U)p.r(U)p.[fl2r](A)p.[fl2r](C)p.r(C)p.r(U)p.r(G)p.r(G)p.r(G)p.r(G)p.r(G)p.r(A)p.r(A)p.r(A)p.r(T)p.r(T)}$$$RNA1{StrandType:ss}|RNA2{StrandType:as}$” it is 68%.

The substance “RNA1{r(C)p.r(U)p.[fl2r](A)p.[fl2r](A)p.r(G)p.r(C)p.r(C)p.r(U)p.r(G)p.[fl2r](U)p.r(U)p.r(U)p.r(C)p.r(U)p.r(U)p.r(C)p.r(C)p.r(U)p.r(C)p.r(T)p.r(T)}|RNA2{r(G)p.r(A)p.r(G)p.r(G)p.r(A)p.r(A)p.r(G)p.r(A)p.r(A)p.r(A)p.r(C)p.r(A)p.r(G)p.r(G)p.r(C)p.r(U)p.[fl2r](U)p.r(A)p.r(G)p.r(T)p.r(T)}$$$RNA1{StrandType:ss}|RNA2{StrandType:as}$” had a target mRNA knockdown of 85%. The result for “RNA1{r(G)p.r(G)p.r(G)p.r(G)p.r(C)p.r(U)p.r(C)p.r(U)p.r(U)p.r(C)p.r(U)p.m(A)p.r(C)p.r(A)p.r(U)p.r(U)p.r(C)p.r(C)p.r(C)p.r(T)p.r(T)}|RNA2{r(G)p.r(G)p.r(G)p.r(A)p.r(A)p.r(U)p.r(G)p.m(U)p.r(A)p.r(G)p.r(A)p.r(A)p.r(G)p.r(A)p.r(G)p.r(C)p.r(C)p.r(C)p.r(C)p.r(T)p.r(T)}$$$RNA1{StrandType:ss}|RNA2{StrandType:as}$” reads 72%; that for “RNA1{r(A)p.r(A)p.r(A)p.r(C)p.[fl2r](C)p.[fl2r](A)p.r(G)p.r(G)p.r(A)p.r(A)p.r(G)p.r(G)p.r(G)p.r(G)p.r(A)p.r(A)p.r(A)p.r(U)p.r(C)p.r(T)p.r(T)}|RNA2{r(G)p.r(A)p.r(U)p.r(U)p.r(U)p.r(C)p.r(C)p.r(C)p.r(C)p.r(U)p.r(U)p.r(C)p.r(C)p.r(U)p.r(G)p.r(G)p.r(U)p.r(U)p.r(U)p.r(T)p.r(T)}$$$RNA1{StrandType:ss}|RNA2{StrandType:as}$”, 64%; that for “RNA1{r(G)p.r(G)p.r(A)p.r(G)p.r(C)p.r(A)p.r(C)p.r(G)p.r(C)p.r(U)p.m(U)p.r(A)p.r(C)p.m(U)p.r(A)p.r(C)p.r(C)p.r(U)p.r(U)p.r(T)p.r(T)}|RNA2{r(A)p.r(A)p.r(G)p.r(G)p.m(U)p.r(A)p.r(G)p.m(U)p.r(A)p.r(A)p.r(G)p.r(C)p.r(G)p.r(U)p.r(G)p.r(C)p.r(U)p.r(C)p.r(C)p.r(T)p.r(T)}$$$RNA1{StrandType:ss}|RNA2{StrandType:as}$”, 69%. The figure for “RNA1{r(G)p.r(U)p.r(A)p.r(U)p.r(G)p.r(A)p.r(C)p.r(C)p.r(G)p.r(A)p.r(C)p.r(U)p.r(A)p.r(C)p.r(G)p.r(C)p.r(G)p.r(U)p.r(A)p.r(T)p.r(T)}|RNA2{r(U)p.r(U)p.r(C)p.r(A)p.r(G)p.r(U)p.r(G)p.r(U)p.r(G)p.r(A)p.r(U)p.r(G)p.r(A)p.r(C)p.[una](A)p.r(C)p.r(U)p.r(U)p.r(G)p.r(T)p.r(T)}$$$RNA1{StrandType:ss}|RNA2{StrandType:as}$” is 86%. The figure for “RNA1{r(A)p.r(A)p.r(G)p.r(G)p.m(C)p.r(A)p.r(U)p.r(G)p.r(C)p.r(U)p.r(U)p.r(C)p.r(G)p.r(G)p.r(A)p.r(A)p.r(A)p.r(C)p.r(U)p.r(T)p.r(T)}|RNA2{r(A)p.r(G)p.r(U)p.r(U)p.r(U)p.r(C)p.r(C)p.r(G)p.r(A)p.r(A)p.r(G)p.m(C)p.r(A)p.r(U)p.r(G)p.r(C)p.r(C)p.r(U)p.r(U)p.r(T)p.r(T)}$$$RNA1{StrandType:ss}|RNA2{StrandType:as}$” is 95%. Substance “RNA1{r(G)p.r(A)p.r(U)p.r(U)p.r(C)p.m(C)p.r(A)p.r(A)p.r(A)p.r(C)p.r(C)p.r(C)p.r(C)p.r(A)p.r(C)p.m(U)p.r(A)p.r(U)p.r(C)p.r(T)p.r(T)}|RNA2{r(G)p.r(A)p.r(U)p.r(A)p.r(G)p.r(U)p.r(G)p.r(G)p.r(G)p.r(G)p.r(U)p.r(U)p.r(U)p.r(G)p.r(G)p.r(A)p.r(A)p.r(U)p.r(C)p.r(T)p.r(T)}$$$RNA1{StrandType:ss}|RNA2{StrandType:as}$” gave a target mRNA knockdown of 67%.

(Values after the OligoGym collection.)
